Like-named read-outs stand apart in the source and are kept apart here.
Columns and labels:
[1] = system: buccal pouches and principal organs; assay: Local toxicity of empty vehicles without DMBA induction; assay type: in vivo, Syrian golden hamsters (Mesocricetus auratus)
Experimental: The last thirty animals were randomly divided in three further groups (n=10 each) to evaluate the local toxicity of the empty vehicles (TE, TC and TM) without DMBA carcinogenesis induction. Topical application of EtOH, cream and mouthwash was performed in the same manner before described.
In vivo side effects were investigated after 14 weeks of E, C and M topical applications on right buccal pouches on three groups of animals (TE, TC and TM respectively).

[2] = cited from earlier work
[3] = cited from earlier work; remark: listed apart in the source
[4] = system: DMBA-induced lesions (OPL, ExL) of hamster buccal pouch; conditions: in vivo
[5] = cited from earlier work; remark: listed apart in the source
HCPC-I cells = conditions: in vitro, FIG. 2
Experimental: Cells were harvested every 3-4 days with 0.25% trypsin solution (from Sigma). […] HCPC-I cells were dispensed at a density of 5×10^2/100 μl for each well in RPMI-1640 supplemented with 10% FCS. […] After 72 h of incubation, cells were supplemented with 10 μl of a stock solution (5 mg/ml) of MTT (Sigma) in phosphate buffer saline (PBS). At least 3 h later, culture medium was replaced with 100 μl of dimethyl-sulfoxide (DMSO, Sigma) and plates read at 560 nm with a “Microplate Reader model 450” (BioRad). Cell viability was expressed as average percentage of absorbance in treated cells versus control (culture medium alone).

[6] = 14 weeks topical application, no DMBA

Molecule: CCO [EtOH, ethanol]
- gross observations of pouches and principal organs [1, 6]: did not reveal any macroscopic alterations
- histological HE analysis, local adverse reactions [1, 6]: absence of local adverse reactions

Molecule: Oc1ccc(/C=C/c2cc(O)cc(O)c2)cc1 [RV, 3,4′,5-trihydroxy-trans-stilbene]
- pKa ([2]; 3-OH group): 10
- pKa ([2]; 4′-OH group): 9.3
- pKa ([2]; 5-OH group): 10.6
- oral bioavailability ([3]; human): very poor
- initial half-life ([3]; in vivo): 8 to 14 min
- tolerance of topical application on oral mucosa [4]: good tolerance

Molecule: hydroxypropyl-β-cyclodextrin [HPβCD]
- dose with main adverse event (soft stools and diarrhea) ([5]; almost 14 days): 16-24 g HPβCD/day
- oral toxicity ([5]; orally administered): practically non-toxic
- inhibition of cell growth by HPβCD (HCPC-I cells): inhibition of cell growth only at extremely high concentrations
- toxic signs or adverse effects in chronic treated hamsters ([1]; in vivo concentrations): did not display any toxic signs or adverse effects
